Data on 66 molecules can be found in publication PMC9297786 (Molecular Oncology, 2022).

As a reminder, the inhibition is the change of the read-out against control, counted positive when it falls.

The structures appear in SMILES notation. Structures can show the parent of a compound that is named as a salt.

The subject of one assay is K562. The experiment in a line: cells. On the set-up: MTT cell growth inhibition assay, absorbance at 490 nm. Particulars: 48 h; inhibitor. On the procedure:
Exponential‐phase cells were seeded into 96‐well plates at a density of 2 × 10^4 cells per well in complete medium. After 24 h, cells were treated with drugs at indicated concentrations and incubated for 48 h. Fresh medium containing 20 μL MTT solution (5 mg·mL^−1) was then added to each well. Then plates were incubated for another 4 h at 37 °C. After removing the medium, 150 μL DMSO was added to each well. The absorbance was recorded at 490 nm in the microplate reader and the inhibition ratio (I%) was calculated. The cell growth assay was conducted as described previously. K562 cells were cultured in IMDM containing 10% fetal bovine serum, 100 U·mL^−1 penicillin and 100 U·mL^−1 streptomycin. […] MEG‐01 cells were cultured in DMEM containing 10% fetal bovine serum, 100 U·mL^−1 penicillin and 100 U·mL^−1 streptomycin. […] Cells were grown at 37 °C in a humidified atmosphere with 5% CO2. […] To identify an EPHB4‐specific inhibitor with a potential of rapid translation into clinic, a pool of clinically approved TKIs and compounds was screened in this study (Fig. S2 and Table S4).
As to `CN1CC[C@]23c4c5ccc(O)c4O[C@H]2[C@@H](O)C=C[C@H]3[C@H]1C5` [morphine], the “Inhibition rate (%, 10 μM)” value is on record as -46.72%.

The assay is the same for the next values; noted with them: Homo sapiens, K562, 48 h, read-out: Inhibition rate (%, 10 μM).
As for `Nc1nc2c(ncn2COCCO)c(=O)[nH]1` [acyclovir], the inhibition at 10 µM was -42.6%.
`COC(=O)C1=C(C)NC(C)=C(C(=O)OCCN(C)Cc2ccccc2)C1c1cccc([N+](=O)[O-])c1` (stereo not drawn) [nicardipine]: the inhibition at 10 µM was -74.2%.
For the molecule `O=C(/C=C/c1ccc(O)c2oc(-c3ccc(O)c(O)c3)cc12)O[C@H](Cc1ccc(O)c(O)c1)C(=O)O` [salvianolic acid C], the inhibition at 10 µM is -2.73%.
Consider `O=c1[nH]c2ccccc2n1CCCN1CCC(n2c(=O)[nH]c3cc(Cl)ccc32)CC1` [domperidone], for which the inhibition at 10 µM is -38.6%.
`CN(c1nccc(=O)[nH]1)C1CCN(c2nc3ccccc3n2Cc2ccc(F)cc2)CC1` [mizolastine]: the inhibition at 10 µM was -89.1%.
As to `O=C1Nc2ccc(Cl)cc2[C@@](C#CC2CC2)(C(F)(F)F)O1` [sustiva], the inhibition at 10 µM was -40.1%.
With `CC[C@H]1CN2CC[C@]3(C(=O)Nc4ccccc43)[C@@H]2C[C@@H]1/C(=C\OC)C(=O)OC` [rhynchophylline], the inhibition at 10 µM is -47.3%.
In the case of `CC(C)NCC(O)c1ccccc1Cl` (stereo not drawn) [clorprenaline], the inhibition at 10 µM is -36.2%.
On to `COc1cc(C=O)ccc1O` [vanillin], for which the inhibition at 10 µM is -86.2%.
With `CC(C)(C)NCC(O)c1ccc(O)c(CO)c1` (stereo not drawn) [salbutamol], the inhibition at 10 µM was -65.8%.
Turning to `C#Cc1cccc(Nc2ncnc3cc(OCCOC)c(OCCOC)cc23)c1` [erlotinib], the inhibition at 10 µM worked out at 3.52%.
For the molecule `CC(C)=CCOc1c2occc2cc2ccc(=O)oc12` [imperatorin], the inhibition at 10 µM is -7.73%.
As for `COc1ccc(C[C@H]2COC(=O)[C@@H]2Cc2ccc(O[C@@H]3O[C@H](CO)[C@@H](O)[C@H](O)[C@H]3O)c(OC)c2)cc1OC` [arctiin], the inhibition at 10 µM was -62.6%.
Turning to `CN1CCC(=C2c3ccccc3C=Cc3ccccc32)CC1` [cyproheptadine], the inhibition at 10 µM is -38.4%.
In the case of `COC(=O)CCc1ccc(OCC(O)CNC(C)C)cc1` (stereo not drawn) [brevibloc], the inhibition at 10 µM was -12.6%.
In the case of `CCCc1nc2c(C)cc(-c3nc4ccccc4n3C)cc2n1Cc1ccc(-c2ccccc2C(=O)O)cc1` [telmisartan], the inhibition at 10 µM is -8.14%.
As for `CC(C)NC(=N)NC(=N)Nc1ccc(Cl)cc1` [proguanil], the inhibition at 10 µM is -7.92%.
`CN[C@@H](C)[C@H](O)c1ccccc1` [ephedrine hydrochloride]: the inhibition at 10 µM was -29%.
On the same count and under the same terms, the value for `CCOC(=O)C1=C[C@@H](OC(CC)CC)[C@H](NC(C)=O)[C@@H](N)C1` [oseltamivir] was -47.6%.
`COc1cc2c(cc1OC)[C@@H]1Cc3ccc(OC)c(OC)c3CN1CC2` [tetrahydropalmatine]: the inhibition at 10 µM was -83.4%.
Turning to `O=c1ccc2cc3ccoc3cc2o1` [psoralen], the inhibition at 10 µM was -51.5%.
The same measure, in the same setting: in the case of `O=C(O)c1cn(C2CC2)c2cc(N3CCNCC3)c(F)cc2c1=O` [ciprofloxacin] it was -3.17%; in that of `CN(C)CCC(c1ccc(Cl)cc1)c1ccccn1` (stereo not drawn) [chlorpheniramine], -42.9%.
On the same count and under the same terms, the value for `COc1ccc(CCN(C)CCCC(C#N)(c2ccc(OC)c(OC)c2)C(C)C)cc1OC` (stereo not drawn) [verapamil] was 66%; that for `COc1cc2nc(N(C)CCCNC(=O)C3CCCO3)nc(N)c2cc1OC` (stereo not drawn) [alfuzosin] was -37.2%; that for `CC(C)[C@H](N)C(=O)OCCOCn1cnc2c(=O)nc(N)[nH]c21` [valaciclovir] was -63.9%.
For `CN(C)CCC=C1c2ccccc2COc2ccccc21` [doxepin], the inhibition at 10 µM was -54.9%.
On the same count and under the same terms, the value for `CCOc1nc2cccc(C(=O)O)c2n1Cc1ccc(-c2ccccc2-c2nnn[nH]2)cc1` [candesartan] was -49.7%; that for `CCOC(=O)C1(c2ccccc2)CCN(C)CC1` [pethidine] was -43.7%.
On to `CC(=O)Oc1c(C)cc(OCC(O)CNC(C)C)c(C)c1C` (stereo not drawn) [metipranolol], for which the inhibition at 10 µM was -26.8%.
As to `OCCOCCN1CCN(C2=Nc3ccccc3Sc3ccccc32)CC1` [quetiapine], the inhibition at 10 µM is -46.2%.
`COCCOC(=O)C1=C(C)NC(C)=C(C(=O)OC(C)C)C1c1cccc([N+](=O)[O-])c1` (stereo not drawn) [nimodipine]: the inhibition at 10 µM was -69.7%.
As for `CC(C)(C)NC(=O)[C@@H]1CN(Cc2cccnc2)CCN1C[C@@H](O)C[C@@H](Cc1ccccc1)C(=O)N[C@H]1c2ccccc2C[C@H]1O` [indinavir], the inhibition at 10 µM was -52.2%.
Take `Cc1ccc(Nc2nccc(N(C)c3ccc4c(C)n(C)nc4c3)n2)cc1S(N)(=O)=O` [pazopanib]: the inhibition at 10 µM was 76.2%.
With `CCN(CC)CC(=O)Nc1c(C)cccc1C` [lidocaine], the inhibition at 10 µM is -38.5%.
On the same count and under the same terms, in the case of `OCc1cc(C(O)CNCCCCCCOCCCCc2ccccc2)ccc1O` (stereo not drawn) [salmeterol] it was -72.7%.
As for `CCCc1nc(C(C)(C)O)c(C(=O)O)n1Cc1ccc(-c2ccccc2-c2nnn[nH]2)cc1` [olmesartan], the inhibition at 10 µM is -34.8%.
For `O=C(/C=C/c1ccc(O)c2c1[C@H](C(=O)O[C@H](Cc1ccc(O)c(O)c1)C(=O)O)[C@@H](c1ccc(O)c(O)c1)O2)O[C@H](Cc1ccc(O)c(O)c1)C(=O)O` [salvianolic acid B], the inhibition at 10 µM was -40.8%.
With `COc1cc2nc(N3CCN(C(=O)C4CCCO4)CC3)nc(N)c2cc1OC` (stereo not drawn) [terazosin], the inhibition at 10 µM was -57%.
Turning to `COc1ccc2c3c1O[C@H]1[C@@H](O)C=C[C@H]4[C@@H](C2)N(C)CC[C@@]341` [codeine], the inhibition at 10 µM was -64%.
For the molecule `CCN(CC)CCNC(=O)c1c(C)[nH]c(/C=C2\C(=O)Nc3ccc(F)cc32)c1C` [sunitinib], the inhibition at 10 µM amounted to 73.5%.
In the case of `Cc1cc2c(s1)Nc1ccccc1N=C2N1CCN(C)CC1` [olanzapine], the inhibition at 10 µM is -53.5%.
Same read-out and setting: in the case of `Cc1cn(-c2cc(NC(=O)c3ccc(C)c(Nc4nccc(-c5cccnc5)n4)c3)cc(C(F)(F)F)c2)cn1` [nilotinib] it was 71.7%.
`CNC(=O)c1cc(Oc2ccc(NC(=O)Nc3ccc(Cl)c(C(F)(F)F)c3)cc2)ccn1` [sorafenib]: the inhibition at 10 µM was determined as 73.4%.
With `CCCCC(=O)N(Cc1ccc(-c2ccccc2-c2nnn[nH]2)cc1)[C@H](C(=O)O)C(C)C` [valsartan], the inhibition at 10 µM is -32.4%.
Still for that read-out and setting: in the case of `Cc1nnc(C(C)C)n1[C@@H]1C[C@H]2CC[C@@H](C1)N2CC[C@H](NC(=O)C1CCC(F)(F)CC1)c1ccccc1` [maraviroc] it was -56.3%; in that of `CC(C)(C)NC(=O)[C@@H]1C[C@@H]2CCCC[C@@H]2CN1C[C@@H](O)[C@H](Cc1ccccc1)NC(=O)[C@H](CC(N)=O)NC(=O)c1ccc2ccccc2n1` [saquinavir], -30.4%.
The same measure, in the same setting: the value for `O=C(O)[C@H]1O[C@@H](Oc2cc3oc(-c4ccccc4)cc(=O)c3c(O)c2O)[C@H](O)[C@@H](O)[C@@H]1O` [baicalin] was -31%.
For the molecule `Cc1ccc(N(CC2=NCCN2)c2cccc(O)c2)cc1` [phentolamine], the inhibition at 10 µM is -43.1%.
For `CCCCC1=NC2(CCCC2)C(=O)N1Cc1ccc(-c2ccccc2-c2nnn[nH]2)cc1` [irbesartan], the inhibition at 10 µM was -56.4%.
For `CC(C)(C)NCC(O)c1cc(O)cc(O)c1` (stereo not drawn) [terbutaline], the inhibition at 10 µM was -58.2%.
In the case of `CN1CCCC(n2nc(Cc3ccc(Cl)cc3)c3ccccc3c2=O)CC1` (stereo not drawn) [azelastine], the inhibition at 10 µM is -74.3%.
Consider `CN(C)C/C=C/C(=O)Nc1cc2c(Nc3ccc(F)c(Cl)c3)ncnc2cc1O[C@H]1CCOC1` [afatinib], for which the inhibition at 10 µM amounted to 78.6%.
Consider `Cc1cc(O)c2c(c1)C(=O)c1cc(O)cc(O)c1C2=O` [emodin], for which the inhibition at 10 µM was found to be 6.9%.
With `CCOC(=O)C1=C(C)NC(C)=C(C(=O)OC)C1c1cccc([N+](=O)[O-])c1` (stereo not drawn) [nitrendipine], the inhibition at 10 µM is -26.4%.
`COc1ccc2ccc(=O)oc2c1CC=C(C)C` [osthole]: the inhibition at 10 µM was -21.2%.
Take `C=C1C(=O)O[C@@]23[C@H]1CC[C@@H](C)[C@@H]2CC[C@@]1(C)O[C@@H]31` [arteannuin b]: the inhibition at 10 µM was -8.46%.
For `COc1ccc([C@@H]2CC(=O)c3c(O)cc(O[C@@H]4O[C@H](CO)[C@@H](O)[C@H](O)[C@H]4O[C@@H]4O[C@@H](C)[C@H](O)[C@@H](O)[C@H]4O)cc3O2)cc1O` [neohesperidin], the inhibition at 10 µM was -49.4%.
As to `Cc1cn([C@H]2C[C@H](N=[N+]=[N-])[C@@H](CO)O2)c(=O)[nH]c1=O` [zidovudine], the inhibition at 10 µM is 10.3%.
With `NCCc1ccc(O)c(O)c1` [dopamine], the inhibition at 10 µM was -62.3%.
Regarding `O=C(/C=C/c1ccc(O)cc1)c1ccc(O)cc1O` [isoliquiritigenin], the inhibition at 10 µM is -123%.
For the molecule `CC(C)=CCOc1c2ccoc2cc2oc(=O)ccc12` [isoimperatorin], the inhibition at 10 µM is -85.9%.

The same assay, now with this note: Homo sapiens, K562, 48 h; read-out: Inhibition rate (%, 10 μM).
`COc1cc2c(cc1OC)[C@@]13CCN4CC5=CCO[C@H]6CC(=O)N2[C@H]1[C@H]6[C@H]5C[C@H]43` [brucine]: the inhibition at 10 µM is -63.5%.
As for `COC1=C[C@@H]2[C@@H]3Cc4ccc(OC)c(O)c4[C@]2(CCN3C)CC1=O` [sinomenine], the inhibition at 10 µM is -4.7%.
Consider `COC1=CC=C2[C@H]3Cc4ccc(OC)c5c4[C@@]2(CCN3C)[C@H]1O5` [thebaine], for which the inhibition at 10 µM is -58.3%.
